Experimental data as given in US8999976B2, “Modulators of cystic fibrosis transmembrane conductance regulator” (Vertex Pharmaceuticals Incorporated, priority 2008, dated 2015).

Molecular target: T1, ΔF508-CFTR (Homo sapiens, UniProt P13569, DEL508-508)
T1 construct: expressed in transfected cells
Experiment: Membrane potential optical assay for potentiators of ΔF508-CFTR (FLIPR III, voltage sensing dyes)
Type: cell-based
Details: for Emax: NIH3T3, 100% efficacy is the maximum response obtained with 4-methyl-2-(5-phenyl-1H-pyrazol-3-yl)phenol, ΔF508 CFTR NIH 3T3 cells; for EC50: temperature-corrected ΔF508 CFTR NIH 3T3 cells, forskolin activation
Excerpt: The assay utilizes fluorescent voltage sensing dyes to measure changes in membrane potential using a fluorescent plate reader (e.g., FLIPR III, Molecular Devices, Inc.) as a readout for increase in functional ΔF508-CFTR in NIH 3T3 cells.
To identify potentiators of ΔF508-CFTR, a double-addition HTS assay format was developed. This HTS assay utilizes fluorescent voltage sensing dyes to measure changes in membrane potential on the FLIPR III as a measurement for increase in gating (conductance) of ΔF508 CFTR in temperature-corrected ΔF508 CFTR NIH 3T3 cells.
Solutions • Bath Solution #1: (in mM) NaCl 160, KCl 4.5, CaCl2 2, MgCl2 1, HEPES 10, pH 7.4 with NaOH. • Chloride-Free Bath Solution: Chloride Salts in Bath Solution #1 are Substituted with Gluconate Salts.
NIH3T3 mouse fibroblasts stably expressing ΔF508-CFTR are used for optical measurements of membrane potential. The cells are maintained at 37° C. in 5% CO2 and 90% humidity in Dulbecco's modified Eagle's medium supplemented with 2 mM glutamine, 10% fetal bovine serum, 1×NEAA, β-ME, 1×pen/strep, and 25 mM HEPES in 175 cm^2 culture flasks. For all optical assays, the cells were seeded at ˜20,000/well in 384-well matrigel-coated plates and cultured for 2 hrs at 37° C. before culturing at 27° C. for 24 hrs. for the potentiator assay. For the correction assays, the cells are cultured at 27° C. or 37° C. with and without compounds for 16-24 hours. Electrophysiological Assays for assaying ΔF508-CFTR modulation properties of compounds.

T1 sequence (P13569 with tags, fused parts or gaps DEL508-508): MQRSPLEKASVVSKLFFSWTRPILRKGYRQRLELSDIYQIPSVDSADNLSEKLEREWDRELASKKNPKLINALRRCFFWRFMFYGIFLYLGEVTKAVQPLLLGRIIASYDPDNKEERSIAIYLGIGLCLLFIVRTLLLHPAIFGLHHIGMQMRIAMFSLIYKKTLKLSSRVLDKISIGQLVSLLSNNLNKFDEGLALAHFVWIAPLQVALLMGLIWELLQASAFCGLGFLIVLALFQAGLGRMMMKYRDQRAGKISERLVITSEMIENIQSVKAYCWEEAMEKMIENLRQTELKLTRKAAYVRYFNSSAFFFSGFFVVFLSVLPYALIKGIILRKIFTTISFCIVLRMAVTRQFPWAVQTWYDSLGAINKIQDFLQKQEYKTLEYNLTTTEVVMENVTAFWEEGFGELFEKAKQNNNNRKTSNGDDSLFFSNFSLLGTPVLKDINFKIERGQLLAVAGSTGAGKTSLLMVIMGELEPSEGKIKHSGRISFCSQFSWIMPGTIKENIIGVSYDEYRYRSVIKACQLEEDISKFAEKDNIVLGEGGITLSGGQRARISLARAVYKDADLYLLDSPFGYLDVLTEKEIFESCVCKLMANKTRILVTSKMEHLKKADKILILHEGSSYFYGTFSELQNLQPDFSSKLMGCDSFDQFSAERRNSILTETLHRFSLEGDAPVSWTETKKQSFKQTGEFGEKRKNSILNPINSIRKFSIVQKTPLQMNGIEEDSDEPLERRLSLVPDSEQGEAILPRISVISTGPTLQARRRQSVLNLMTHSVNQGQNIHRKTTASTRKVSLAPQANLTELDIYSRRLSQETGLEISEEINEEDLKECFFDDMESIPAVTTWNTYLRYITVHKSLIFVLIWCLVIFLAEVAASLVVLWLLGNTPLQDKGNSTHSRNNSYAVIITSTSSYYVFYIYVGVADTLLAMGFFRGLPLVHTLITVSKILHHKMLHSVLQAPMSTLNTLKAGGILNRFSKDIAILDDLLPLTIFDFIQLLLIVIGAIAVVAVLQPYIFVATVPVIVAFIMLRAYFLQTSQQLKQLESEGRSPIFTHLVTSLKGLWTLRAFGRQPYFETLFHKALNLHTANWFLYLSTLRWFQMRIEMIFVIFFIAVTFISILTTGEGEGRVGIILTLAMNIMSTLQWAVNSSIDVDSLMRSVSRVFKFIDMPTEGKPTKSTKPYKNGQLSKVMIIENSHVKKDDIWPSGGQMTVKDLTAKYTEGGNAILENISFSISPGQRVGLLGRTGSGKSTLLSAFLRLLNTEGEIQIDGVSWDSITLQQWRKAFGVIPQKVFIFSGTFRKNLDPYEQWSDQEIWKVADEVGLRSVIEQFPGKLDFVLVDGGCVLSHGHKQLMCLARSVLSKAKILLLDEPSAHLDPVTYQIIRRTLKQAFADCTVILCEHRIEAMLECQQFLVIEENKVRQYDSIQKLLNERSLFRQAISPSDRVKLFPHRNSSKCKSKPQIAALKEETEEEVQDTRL

Compound	Emax [%]	EC50 [µM]
COc1ccc2c(c1)OC(C(=O)Nc1ccc(C(C)(C)C)c(O)c1)CN2 (centres unmarked) [Compound 1]	< 25	5 to 20
Cc1ccc2c(c1)OC(C(=O)Nc1cc(O)c(C3(C)CCCCC3)cc1F)CN2 (centres unmarked) [Compound 2]	25 to 100	< 5
CCOC(=O)CCc1cc(C2CCCC2)c(O)cc1NC(=O)C1CNc2cc(OC(F)(F)F)ccc2O1 (centres unmarked) [Compound 4]	> 100	< 5
O=C(Nc1ccc(C(F)(F)F)c(O)c1)C1CNc2ccccc2O1 (centres unmarked) [Compound 5]	< 25	5 to 20
Cc1cc2c(cc1F)NCC(C(=O)Nc1cc(O)c(C(C)(C)C)cc1C(C)(C)C)O2 (centres unmarked) [Compound 6]	25 to 100	< 5
Cc1cc(C#CCN(C)C)c(NC(=O)C2CNc3cc(OC(F)(F)F)ccc3O2)cc1O (centres unmarked) [Compound 7]	25 to 100	< 5
CC(C)(C)c1cc(C(C)(C)C)c(NC(=O)C2CNc3cc(F)c(F)cc3O2)cc1O (centres unmarked) [Compound 8]	25 to 100	< 5
Cc1ccc(NC(=O)C2CNc3cc(OC(F)(F)F)ccc3O2)c(C#CCN2CCC(F)(F)CC2)c1 (centres unmarked) [Compound 9]	25 to 100	< 5
N#Cc1ccc2c(c1)NCC(C(=O)Nc1cc(O)c(C3CCCC3)cc1C1=CCNCC1)O2 (centres unmarked) [Compound 11, 6-cyano-N-(4-cyclopentyl-5-hydroxy-2-(1,2,3,6-tetrahydropyridin-4-yl)phenyl)-3,4-dihydro-2H-benzo[b][1,4]oxazine-2-carboxamide]	25 to 100	5 to 20
O=C(Nc1cc(O)c(C2CCCC2)cc1C#CCO)C1CNc2cc(OC(F)(F)F)ccc2O1 (centres unmarked) [Compound 12]	25 to 100	< 5
COc1ccc2c(c1)NCC(C(=O)Nc1ccc(C(C)(C)C)c(O)c1)O2 (centres unmarked) [Compound 14]	< 25	5 to 20
Cc1cc(C)c(NC(=O)C2CNc3cc(OC(F)(F)F)ccc3O2)c(C#CCN(C)C)c1 (centres unmarked) [Compound 15]	25 to 100	< 5
O=C(O)CCc1cc(C2CCCC2)c(O)cc1NC(=O)C1CNc2cc(OC(F)(F)F)ccc2O1 (centres unmarked) [Compound 16]	25 to 100	< 5
CC1(c2cc(F)c(NC(=O)C3CNc4cc(F)ccc4O3)cc2O)CCCCC1 (centres unmarked) [Compound 18]	25 to 100	< 5
CC1(c2cc(F)c(NC(=O)[C@@H]3CNc4ccccc4O3)cc2O)CCCCC1 [Compound 19]	25 to 100	< 5
CCc1cc(F)c(NC(=O)C2CNc3ccc(F)cc3O2)cc1O (centres unmarked) [Compound 20]	25 to 100	< 5
Cc1ccc(NC(=O)C2CNc3cc(OC(F)(F)F)ccc3O2)c(C#CCN(C)C)c1 (centres unmarked) [Compound 26]	25 to 100	< 5
COc1cc(NC(=O)C2CNc3ccccc3O2)ccc1-n1c(C)ccc1C (centres unmarked) [Compound 28]	25 to 100	5 to 20
O=C(Nc1ccc2c(C(F)(F)F)c[nH]c2c1)C1CNc2ccccc2O1 (centres unmarked) [Compound 30]	25 to 100	5 to 20

Compound	Emax [%]	EC50 [µM]
O=C(Nc1cc(O)c(C2CCCC2)cc1C(F)(F)F)[C@H]1CNc2cc(OC(F)(F)F)ccc2O1 [Compound 32]	25 to 100	< 5
CC(C)(C)c1ccc(NC(=O)C2CNc3cccc(F)c3O2)cc1O (centres unmarked) [Compound 33]	25 to 100	< 5
CN(C)CC#Cc1cc(C2CCCC2)c(O)cc1NC(=O)C1CNc2cc(C#N)ccc2O1 (centres unmarked) [Compound 34]	25 to 100	< 5
CC(C)(C)c1ccc(NC(=O)C2CNc3ccc(F)cc3O2)cc1O (centres unmarked) [Compound 35]	25 to 100	< 5
Cc1cc(C#CCN(C)C)c(NC(=O)C2CNc3ccccc3O2)cc1F (centres unmarked) [Compound 36]	25 to 100	5 to 20
CN(C)CCCc1cc(C2CCCC2)c(O)cc1NC(=O)C1CNc2cc(OC(F)(F)F)ccc2O1 (centres unmarked) [Compound 38, N-(4-cyclopentyl-2-(3-(dimethylamino)propyl)-5-hydroxyphenyl)-6-(trifluoromethoxy)-3,4-dihydro-2H-benzo[b][1,4]oxazine-2-carboxamide]	25 to 100	< 5
N#Cc1ccc2c(c1)NCC(C(=O)Nc1cc(O)c(C3CCCC3)cc1C(F)(F)F)O2 (centres unmarked) [Compound 39]	25 to 100	< 5
NCC#Cc1cc(C2CCCC2)c(O)cc1NC(=O)C1CNc2cc(OC(F)(F)F)ccc2O1 (centres unmarked) [Compound 40]	25 to 100	< 5
Cc1cnc(NC(=O)C2CNc3cc(OC(F)(F)F)ccc3O2)c(C#CCN(C)C)c1 (centres unmarked) [Compound 41]	25 to 100	< 5
CC(C)Oc1ccc(NC(=O)C2CNc3ccc(F)cc3O2)cc1O (centres unmarked) [Compound 42]	< 25	5 to 20
CN(C)CC#Cc1cc(N2C3CCC2CC3)ccc1NC(=O)C1CNc2cc(C#N)ccc2O1 (centres unmarked) [Compound 43, N-(4-(7-azabicyclo[2.2.1]heptan-7-yl)-2-(3-(dimethylamino)prop-1-ynyl)phenyl)-6-cyano-3,4-dihydro-2H-benzo[b][1,4]oxazine-2-carboxamide]		< 5
CCc1ccc(NC(=O)C2CNc3cc(OC(F)(F)F)ccc3O2)c(C#CCN(C)C)c1 (centres unmarked) [Compound 44]	> 100	< 5
Cc1ccc(NC(=O)C2CNc3cc(OC(F)(F)F)ccc3O2)c(C#CCN2CCC(F)(F)C2)c1 (centres unmarked) [Compound 45]	25 to 100	< 5
O=C(Nc1ccc(OC(F)(F)F)c(O)c1)C1CNc2ccc(F)cc2O1 (centres unmarked) [Compound 47]	25 to 100	< 5
Cc1ccc(NC(=O)C2CNc3cc(C)ccc3O2)c(C#CCN(C)C)c1 (centres unmarked) [Compound 48]	25 to 100	< 5
CC(C)(C)c1ccc(NC(=O)C2CNc3cc(F)c(F)cc3O2)cc1O (centres unmarked) [Compound 49]	25 to 100	< 5
CC(C)CC#Cc1cc(C2CCCC2)c(O)cc1NC(=O)C1CNc2cc(OC(F)(F)F)ccc2O1 (centres unmarked) [Compound 53]	25 to 100	< 5
O=C(Nc1cc(O)c(C2CCCC2)cc1C(F)(F)F)[C@@H]1CNc2cc(OC(F)(F)F)ccc2O1 [Compound 54]	25 to 100	< 5

Now from value to molecule:

Emax [%]	EC50 [µM]	Compound
25 to 100	< 5	O=C(Nc1cc(O)c(C2CCCC2)cc1CN1CCCCC1)C1CNc2ccccc2O1 (centres unmarked) [Compound 3]
< 25	5 to 20	CCN1CCN(c2cc(C3CCCC3)c(O)cc2NC(=O)C2CNc3cc(C#N)ccc3O2)CC1 (centres unmarked) [Compound 10]
> 100	< 5	CC(C)(C)c1cc(C2CCCC2)c(O)cc1NC(=O)[C@H]1CNc2cc(C#N)ccc2O1 [Compound 13]
25 to 100	< 5	N#Cc1cc(C2CCCC2)c(O)cc1NC(=O)[C@H]1CNc2ccc(F)cc2O1 [Compound 17]
25 to 100	< 5	Cc1cc(C2CCCC2)c(O)cc1NC(=O)C1CNc2ccc(F)cc2O1 (centres unmarked) [Compound 21]
> 100	< 5	O=C(Nc1cc(O)c(C2CCCC2)cc1C#CCN1CCCC1)C1CNc2cc(OC(F)(F)F)ccc2O1 (centres unmarked) [Compound 22]
25 to 100	< 5	N#Cc1cc(C2CCCC2)c(O)cc1NC(=O)C1CNc2ccc(F)cc2O1 (centres unmarked) [Compound 23]
> 100	< 5	O=C(O)Cc1cc(C2CCCC2)c(O)cc1NC(=O)C1CNc2cc(OC(F)(F)F)ccc2O1 (centres unmarked) [Compound 24]
25 to 100	< 5	Cc1cc(C2CCCC2)c(O)cc1NC(=O)[C@@H]1CNc2cc(C#N)ccc2O1 [Compound 25]
25 to 100	< 5	O=C(Nc1ccc(C2CC2)c(O)c1)C1CNc2ccccc2O1 (centres unmarked) [Compound 27]
< 25	5 to 20	CN1CCN(c2cc(C3CCCC3)c(O)cc2NC(=O)C2CNc3cc(C#N)ccc3O2)CC1 (centres unmarked) [Compound 29]
25 to 100	< 5	O=C(Nc1cc(O)c(C2CCCC2)cc1C(F)(F)F)C1CNc2ccc(F)cc2O1 (centres unmarked) [Compound 31]
25 to 100	< 5	CN(C)CC#Cc1cc(C2CCCC2)c(O)cc1NC(=O)[C@@H]1CNc2ccccc2O1 [Compound 37]
> 100	< 5	CC1CCN(Cc2cc(C3CCCC3)c(O)cc2NC(=O)C2CNc3ccccc3O2)CC1 (centres unmarked) [Compound 46]
25 to 100	< 5	N#Cc1cc(C2CCCC2)c(O)cc1NC(=O)[C@@H]1CNc2ccc(F)cc2O1 [Compound 50]
25 to 100	5 to 20	N#Cc1ccc2c(c1)NCC(C(=O)Nc1cc(O)c(C3CCCC3)cc1CN1CCNCC1)O2 (centres unmarked) [Compound 51, 6-cyano-N-(4-cyclopentyl-5-hydroxy-2-(piperazin-1-ylmethyl)phenyl)-3,4-dihydro-2H-benzo[b][1,4]oxazine-2-carboxamide]
25 to 100	< 5	CN1CCN(Cc2cc(C3CCCC3)c(O)cc2NC(=O)C2CNc3ccccc3O2)CC1 (centres unmarked) [Compound 52, N-(4-cyclopentyl-5-hydroxy-2-((4-methylpiperazin-1-yl)methyl)phenyl)-3,4-dihydro-2H-benzo[b][1,4]oxazine-2-carboxamide]
